Measurements reported in PubChem BioAssay AID248 (DTP/NCI, 2004).
Toxic doses and inconclusive results are not listed. Cut-off read from the data, not from the text of the source: active = T/C of 150% or more; inactive = T/C below 125%.

Tested on: L1210 leukemia ip in BDF1 mice, survival T/C
Test: NCI In Vivo Anticancer Drug Screen. Data for tumor model L1210 Leukemia (intraperitoneal) in B6D2F1 (BDF1) mice
Settings: endpoint: mean survival time, higher = longer survival
How it was run: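 Antitumor effect is assessed in tumor-bearing animals. Survival in the compound arm is compared with a vehicle-dosed control arm and expressed as their quotient.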

[1] = dose: 100.0 mg/kg/injection, schedule: Q01DX009 (ip), vehicle: Klucel (hydroxypropylcellulose) (HPC)
[2] = dose: 200.0 mg/kg/injection, schedule: Q01DX009 (ip), vehicle: Klucel (hydroxypropylcellulose) (HPC)
[3] = dose: 400.0 mg/kg/injection, schedule: Q01DX009 (ip), vehicle: Klucel (hydroxypropylcellulose) (HPC)
[4] = dose: 100.0 mg/kg/injection, schedule: Q04DX003 (ip), vehicle: saline
[5] = dose: 200.0 mg/kg/injection, schedule: Q04DX003 (ip), vehicle: saline
[6] = dose: 400.0 mg/kg/injection, schedule: Q04DX003 (ip), vehicle: saline
[7] = dose: 100.0 mg/kg/injection, schedule: Q01DX001 (ip), vehicle: saline
[8] = dose: 200.0 mg/kg/injection, schedule: Q01DX001 (ip), vehicle: saline
[9] = dose: 400.0 mg/kg/injection, schedule: Q01DX001 (ip), vehicle: saline
[10] = dose: 100.0 mg/kg/injection, schedule: Q04DX003 (ip), vehicle: saline with Tween-80
[11] = dose: 200.0 mg/kg/injection, schedule: Q04DX003 (ip), vehicle: saline with Tween-80
[12] = dose: 400.0 mg/kg/injection, schedule: Q04DX003 (ip), vehicle: saline with Tween-80
[13] = dose: 100.0 mg/kg/injection, schedule: Q04DX002 (ip), vehicle: saline with Tween-80
[14] = dose: 200.0 mg/kg/injection, schedule: Q04DX002 (ip), vehicle: saline with Tween-80
[15] = dose: 400.0 mg/kg/injection, schedule: Q04DX002 (ip), vehicle: saline with Tween-80
[16] = dose: 100.0 mg/kg/injection, schedule: Q04DX003 (ip), vehicle: saline sonified
[17] = dose: 200.0 mg/kg/injection, schedule: Q04DX003 (ip), vehicle: saline sonified
[18] = dose: 100.0 mg/kg/injection, schedule: Q01DX009 (ip), vehicle: saline sonified
[19] = dose: 200.0 mg/kg/injection, schedule: Q01DX009 (ip), vehicle: saline sonified

Measured: T/C

O=C(Nc1ccc(Cl)cc1[N+](=O)[O-])Oc1ccc(C2CCCCC2)cc1
inactive: [1] 93 % of control | [2] 89 % of control | [3] 88 % of control

c1ccc2c(c1)[nH]c1nc3ncncc3nc12
inactive: [4] 94 % of control | [5] 88 % of control | [6] 97 % of control

Cc1ccc(C(c2ccc(C)cc2)C(Cl)(Cl)Cl)cc1
inactive: dose: 100.0 mg/kg/injection, schedule: Q01DX001 (ip), vehicle: saline sonified 93 % of control | dose: 200.0 mg/kg/injection, schedule: Q01DX001 (ip), vehicle: saline sonified 96 % of control | dose: 400.0 mg/kg/injection, schedule: Q01DX001 (ip), vehicle: saline sonified 88 % of control

O=C1c2ccccc2-c2cc3ccccc3cc21
inactive: [7] 100 % of control | [1] 92 % of control | dose: 100.0 mg/kg/injection, schedule: Q04DX003 (ip), vehicle: Klucel (hydroxypropylcellulose) (HPC) 108 % of control | [8] 101 % of control | [2] 92 % of control | dose: 200.0 mg/kg/injection, schedule: Q04DX003 (ip), vehicle: Klucel (hydroxypropylcellulose) (HPC) 108 % of control | [9] 103 % of control | [3] 90 % of control | dose: 400.0 mg/kg/injection, schedule: Q04DX003 (ip), vehicle: Klucel (hydroxypropylcellulose) (HPC) 110 % of control

Nc1nc(N)c2nc(CBr)cnc2n1
inactive: dose: 6.25 mg/kg/injection, schedule: Q01DX009 (ip), vehicle: saline 105 % of control | dose: 12.5 mg/kg/injection, schedule: Q01DX009 (ip), vehicle: saline 88 % of control | dose: 25.0 mg/kg/injection, schedule: Q01DX009 (ip), vehicle: saline 115 % of control

CC(Br)CNC(=O)c1ccc([N+](=O)[O-])cc1 (configuration not stated)
inactive: dose: 75.0 mg/kg/injection, schedule: Q01DX009 (ip), vehicle: Klucel (hydroxypropylcellulose) (HPC) 107 % of control | dose: 150.0 mg/kg/injection, schedule: Q01DX009 (ip), vehicle: Klucel (hydroxypropylcellulose) (HPC) 97 % of control | dose: 300.0 mg/kg/injection, schedule: Q01DX009 (ip), vehicle: Klucel (hydroxypropylcellulose) (HPC) 101 % of control

Cc1cc(C)c([N+](=O)[O-])c(C)c1
inactive: [1] 104 % of control | [2] 97 % of control | [3] 92 % of control

Fc1nc2nc(C(F)(F)F)[nH]c2nc1F
inactive: dose: 25.0 mg/kg/injection, schedule: Q01DX009 (ip), vehicle: saline with Tween-80 93 % of control | dose: 50.0 mg/kg/injection, schedule: Q01DX009 (ip), vehicle: saline with Tween-80 90 % of control | dose: 100.0 mg/kg/injection, schedule: Q01DX009 (ip), vehicle: saline with Tween-80 95 % of control | dose: 100.0 mg/kg/injection, schedule: Q01DX009 (ip), vehicle: saline 103 % of control | [10] 95 % of control | [11] 105 % of control | [12] 90 % of control

O=C(Cc1ccccc1)NCCCl
inactive: [13] 103 % of control | [14] 103 % of control | [15] 105 % of control

CCCCC[N+](C)(C)CCOC(=O)C1C2CC3OC(=O)C1C3C2 (configuration not stated)
inactive: [4] 95 % of control

CC(=O)N1C(=O)/C(=C\c2cc3c(cc2Br)OCO3)c2cc3c(cc21)OCO3
inactive: dose: 50.0 mg/kg/injection, schedule: Q01DX001 (ip), vehicle: saline 118 % of control | [7] 100 % of control | [8] 106 % of control | [9] 106 % of control

COc1ccc(C2CCCN(C)O2)cc1 (configuration not stated)
inactive: dose: 100.0 mg/kg/injection, schedule: Q01DX001 (ip), vehicle: acetone 102 % of control | dose: 200.0 mg/kg/injection, schedule: Q01DX001 (ip), vehicle: acetone 91 % of control | dose: 400.0 mg/kg/injection, schedule: Q01DX001 (ip), vehicle: acetone 98 % of control

O=C1Cc2ccccc2C(=O)N1
inactive: dose: 25.0 mg/kg/injection, schedule: Q01DX Z (ip), vehicle: carboxymethylcellulose (CMC) 91 % of control | dose: 40.0 mg/kg/injection, schedule: Q01DX Z (ip), vehicle: carboxymethylcellulose (CMC) 104 % of control | dose: 60.0 mg/kg/injection, schedule: Q01DX Z (ip), vehicle: carboxymethylcellulose (CMC) 112 % of control | dose: 90.0 mg/kg/injection, schedule: Q01DX Z (ip), vehicle: carboxymethylcellulose (CMC) 100 % of control | [16] 100 % of control | [17] 99 % of control | dose: 400.0 mg/kg/injection, schedule: Q04DX003 (ip), vehicle: saline sonified 100 % of control

COc1ccc(-c2[nH]c3ccccc3c2-c2ccc(OC)cc2)cc1
inactive: [7] 89 % of control | [8] 89 % of control | [9] 95 % of control

C/C(CC(c1ccccc1)N1CCc2ccccc2C1)=N/O (configuration not stated)
inactive: [18] 94 % of control | [4] 105 % of control | [19] 94 % of control | [5] 104 % of control | dose: 400.0 mg/kg/injection, schedule: Q01DX009 (ip), vehicle: saline sonified 90 % of control | [6] 112 % of control

CC1=CC(C)C(=O)N(C)C(C)=C1 (configuration not stated)
inactive: dose: 75.0 mg/kg/injection, schedule: Q01DX001 (ip), vehicle: carboxymethylcellulose (CMC) 97 % of control | dose: 150.0 mg/kg/injection, schedule: Q01DX001 (ip), vehicle: carboxymethylcellulose (CMC) 91 % of control | dose: 300.0 mg/kg/injection, schedule: Q01DX001 (ip), vehicle: carboxymethylcellulose (CMC) 92 % of control

Cc1ccc(O)c(CCCC(=O)O)c1
inactive: dose: 100.0 mg/kg/injection, schedule: Q01DX009 (ip), vehicle: alcohol 100 % of control | dose: 200.0 mg/kg/injection, schedule: Q01DX009 (ip), vehicle: alcohol 101 % of control | dose: 400.0 mg/kg/injection, schedule: Q01DX009 (ip), vehicle: alcohol 98 % of control

CSc1nnc2sc(=S)[nH]n12
inactive: dose: 100.0 mg/kg/injection, schedule: Q01DX001 (ip), vehicle: carboxymethylcellulose (CMC) 105 % of control | dose: 200.0 mg/kg/injection, schedule: Q01DX001 (ip), vehicle: carboxymethylcellulose (CMC) 90 % of control | dose: 400.0 mg/kg/injection, schedule: Q01DX001 (ip), vehicle: carboxymethylcellulose (CMC) 94 % of control

[Br][Sn]([Br])([CH]1CCCCC1)[CH]1CCCCC1
inactive: dose: 9.38 mg/kg/injection, schedule: Q01DX001 (ip), vehicle: other 91 % of control | dose: 18.75 mg/kg/injection, schedule: Q01DX001 (ip), vehicle: other 93 % of control

CCOc1cc(C(F)(F)F)nc2c3c(cc(OC)c12)CCCN3CC
inactive: [10] 102 % of control | [11] 100 % of control | [12] 97 % of control

CC(O)CCc1ccccc1O (configuration not stated)
inactive: [13] 98 % of control | [14] 91 % of control | [15] 98 % of control

Cc1cccc(N)[n+]1CCC(=O)O
inactive: dose: 75.0 mg/kg/injection, schedule: Q04DX003 (ip), vehicle: saline 101 % of control | dose: 150.0 mg/kg/injection, schedule: Q04DX003 (ip), vehicle: saline 94 % of control | dose: 300.0 mg/kg/injection, schedule: Q04DX003 (ip), vehicle: saline 95 % of control

CCn1cnc2cc(N=Cc3ccc(N(CCCl)CCCl)cc3)ccc21
inactive: dose: 56.3 mg/kg/injection, schedule: Q04DX002 (ip), vehicle: saline 106 % of control | dose: 112.5 mg/kg/injection, schedule: Q04DX002 (ip), vehicle: saline 117 % of control | dose: 225.0 mg/kg/injection, schedule: Q04DX002 (ip), vehicle: saline 102 % of control

CC1CCC2(C)CCC(C(C)C)C2(O)CC1 (configuration not stated)
inactive: dose: 50.0 mg/kg/injection, schedule: Q01DX009 (ip), vehicle: saline sonified 90 % of control | [18] 97 % of control | [16] 107 % of control | [19] 92 % of control | [17] 100 % of control

O=C1c2cccc3cc([N+](=O)[O-])cc(c23)C(=O)N1CCCN(CCO)CCO
inactive: dose: 12.5 mg/kg/injection, schedule: Q01DX009 (ip), vehicle: Klucel (hydroxypropylcellulose) (HPC) 104 % of control | dose: 25.0 mg/kg/injection, schedule: Q01DX009 (ip), vehicle: Klucel (hydroxypropylcellulose) (HPC) 105 % of control | dose: 50.0 mg/kg/injection, schedule: Q01DX009 (ip), vehicle: Klucel (hydroxypropylcellulose) (HPC) 91 % of control
